Among the test systems are 786-0 renal; HOP-92 NSCLC; KM12 colon; M14 melanoma; SK-MEL-2 melanoma; SNB-19 CNS; UACC-62 melanoma; PC-3 prostate; T-47D breast.
Assay in all cases: NCI tumour cell line growth inhibition, 48 h

Structures are written as SMILES.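 All cell lines were grown in 96-well plates and treated with compound for 48 hours. Abbreviation: GI50, concentration required for 50% inhibition of growth. TGI: total growth inhibition.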

Regarding `CN=S(=O)(C[C@]1(O)CC2OC1C1OC(C)(C)OC21)c1ccccc1` (some centres undefined), the TGI in the assay on 786-0 renal, in the assay with HOP-92 NSCLC, with KM12 colon, with M14 melanoma, in the assay on SK-MEL-2 melanoma and with SNB-19 CNS was > 100 µM throughout. The TGI in the assay with UACC-62 melanoma was > 100 µM.

Regarding `CCC[CH2][Sn]([CH2]CCC)([S]C1=NCCS1)[S]C1=NCCS1`, the GI50 was 0.22 µM in the assay with 786-0 renal; 0.227 µM with HOP-92 NSCLC; 1.02 µM with KM12 colon; 0.315 µM in the assay with M14 melanoma; 0.194 µM in the assay on SK-MEL-2 melanoma; 0.3 µM with SNB-19 CNS. In the assay with UACC-62 melanoma, the GI50 is 0.177 µM. The TGI came to 0.663 µM with 786-0 renal; 0.529 µM in the assay on HOP-92 NSCLC; 2.28 µM in the assay with KM12 colon; 1.24 µM in the assay on M14 melanoma; 0.566 µM with SK-MEL-2 melanoma; 1.12 µM with SNB-19 CNS. The same molecule had a TGI in the assay on UACC-62 melanoma of 0.814 µM.

For the molecule `CCC(=C(c1ccc(OCc2ccccc2)cc1)c1ccc(OCc2ccccc2)cc1)c1ccc(OC)cc1`, the TGI in the assay with 786-0 renal, in the assay with HOP-92 NSCLC, in the assay with KM12 colon, with M14 melanoma, in the assay on SK-MEL-2 melanoma and in the assay on SNB-19 CNS was > 100 µM each time. Besides, in the assay on UACC-62 melanoma, the TGI is > 100 µM.

Regarding `C=CCN(N=O)C(=O)N(CCC)CCCCC(NC(C)=O)C(=O)NCc1ccccc1` (centres undefined), the TGI in the assay with 786-0 renal, in the assay on HOP-92 NSCLC, with KM12 colon, with M14 melanoma, in the assay on SK-MEL-2 melanoma and with SNB-19 CNS was > 100 µM each time. For the same molecule, the TGI in the assay with UACC-62 melanoma was > 100 µM.

Consider `O=C(CC1(O)C(=O)Nc2c(Cl)cc(Cl)cc21)c1ccc2ccccc2c1` (centres undefined), for which the TGI was 23.8 µM in the assay on 786-0 renal; 36.2 µM in the assay with HOP-92 NSCLC; 18.8 µM with KM12 colon; 16.6 µM in the assay on M14 melanoma; 16.3 µM with SK-MEL-2 melanoma; 25.4 µM in the assay on SNB-19 CNS. Also, the TGI with UACC-62 melanoma was determined as 14.6 µM.

Turning to `COC(=O)C1C(=O)O[C@@H](c2ccc(OC)cc2OC)C1C(=O)OC` (some centres undefined), the TGI in the assay with 786-0 renal, in the assay on HOP-92 NSCLC, with KM12 colon, in the assay with M14 melanoma, in the assay with SNB-19 CNS and in the assay with UACC-62 melanoma was > 100 µM each time.

In the case of `O=C(CC(=O)C(F)(F)F)c1csc2ccccc12`, the TGI in the assay with 786-0 renal was > 100 µM; with KM12 colon it was > 100 µM; in the assay on M14 melanoma, 68.9 µM; in the assay on SK-MEL-2 melanoma, 53.7 µM; in the assay on SNB-19 CNS it was > 100 µM; in the assay on UACC-62 melanoma, > 100 µM.

With `COc1ccccc1NC(=O)C1=C(C)NC(C)=C(C(=O)Nc2ccccc2OC)C1c1ccccc1OC`, the TGI in the assay with 786-0 renal, with HOP-92 NSCLC, in the assay with KM12 colon, with M14 melanoma, in the assay on SK-MEL-2 melanoma and with SNB-19 CNS was > 100 µM each time. Also, in the assay on UACC-62 melanoma, the TGI was > 100 µM.

As for `CC(=O)Nc1ccc(/C=C/C(=O)c2sc(C(N)=S)nc2C)cc1`, the TGI in the assay on 786-0 renal, with HOP-92 NSCLC, in the assay with KM12 colon, with SK-MEL-2 melanoma and with UACC-62 melanoma was > 100 µM in each case.

`CCOC(=O)C1=C(C)N(NC(=O)c2ccccc2)C2(O)CCCC12C(=O)OCC` (centres undefined): the TGI with 786-0 renal, in the assay on KM12 colon, in the assay with M14 melanoma, in the assay on SK-MEL-2 melanoma, in the assay with SNB-19 CNS and with UACC-62 melanoma was > 100 µM each time.

Turning to `Nc1nc(N)c(-c2ccc(Cl)cc2)c(CCC(=O)Nc2cccc(C(F)(F)F)c2)n1`, the TGI with 786-0 renal, in the assay on KM12 colon, with M14 melanoma, with SK-MEL-2 melanoma, with SNB-19 CNS and with UACC-62 melanoma was > 100 µM in each case.

With `CC1C2=CC=C(O2)C(C)(C)C2=CC=C(O2)C(C)(C)C2=CC=C(O2)C(C)(C)C2=CC=C1O2`, the TGI in the assay with 786-0 renal, with HOP-92 NSCLC, with KM12 colon, in the assay on SK-MEL-2 melanoma and with SNB-19 CNS was > 100 µM each time.

Turning to `Cc1c(Cl)ccc2c1NC(=O)C2(O)C1Cc2ccccc2C1=O` (centres undefined), the TGI with 786-0 renal, with HOP-92 NSCLC, in the assay with KM12 colon, in the assay with M14 melanoma, with SK-MEL-2 melanoma and with SNB-19 CNS was > 100 µM each time. In addition, in the assay on UACC-62 melanoma, the TGI was > 100 µM.

Consider `COc1cnc2c(c1)C(=O)c1c-2n(CCCN2CCN(C)CC2)c(=O)c2cc(Cl)ccc12`, for which the GI50 with 786-0 renal is 2.47 µM; with HOP-92 NSCLC it was 4.68 µM; in the assay with KM12 colon, 3.37 µM; in the assay with M14 melanoma, 1.71 µM; with PC-3 prostate, 3.6 µM; in the assay with SK-MEL-2 melanoma it was 5.29 µM. For the same molecule, the GI50 is 13.8 µM with SNB-19 CNS and 22.8 µM in the assay on T-47D breast. Moreover, the TGI in the assay with 786-0 renal was 31.8 µM; with HOP-92 NSCLC, 29.8 µM; in the assay on KM12 colon, 20.5 µM; in the assay with M14 melanoma, 3.61 µM; in the assay with PC-3 prostate, 65.7 µM; in the assay on SK-MEL-2 melanoma it was 23.2 µM. In addition, the TGI is 78.9 µM with SNB-19 CNS and 98.7 µM in the assay on T-47D breast.

In the case of `CC(C)=CCC/C(C)=C/CC/C(=C/COP(=O)(OCc1ccc([N+](=O)[O-])o1)N(C)CCCCCl)C(C)(C)C` (centres undefined), the GI50 was 2.53 µM in the assay with 786-0 renal; 12.8 µM in the assay on HOP-92 NSCLC; 3.63 µM in the assay on KM12 colon; 2.69 µM in the assay on M14 melanoma; 0.43 µM in the assay on PC-3 prostate; 2.73 µM with SK-MEL-2 melanoma. The GI50 is 15.8 µM with SNB-19 CNS, 16.4 µM with T-47D breast and 9.21 µM in the assay with UACC-62 melanoma. In addition, the TGI with 786-0 renal stood at 8.18 µM; with HOP-92 NSCLC it was 25.4 µM; in the assay with KM12 colon it was 14.9 µM; in the assay on M14 melanoma, 11.8 µM; with PC-3 prostate, 15.1 µM; with SK-MEL-2 melanoma it was 11.4 µM. Besides, the TGI in the assay on SNB-19 CNS came to 33.6 µM; in the assay on T-47D breast, 51.5 µM; in the assay on UACC-62 melanoma it was 23.5 µM.

The values above are taken from PubChem BioAssay (NCI).
